Numbered stars: 1 amine (or outer) side, 2 acyl side, 3 side chain; on linkers, the order of the positions; unused ones are H or OH. Square brackets hold non-standard residues; d marks the D form. Peptide text beside a SMILES is read from it. * marks the point of attachment. Phe(3,4-Cl2) = N[C@@H](Cc1ccc(Cl)c(Cl)c1)C(=O)O; X2 = O=C([C@H](Cc1cccc2[nH]cnc12)N[*:1])[*:2]; X7 = O=C([C@H](Cc1cccc2[nH]ncc12)N[*:1])[*:2]; Trp(1-Me) = Cn1cc(C[C@H](N)C(=O)O)c2ccccc21; X8 = Nc1nc(C[C@H](N[*:1])C(=O)[*:2])c[nH]1; Phe(4-F) = N[C@@H](Cc1ccc(F)cc1)C(=O)O; Bta = N[C@@H](Cc1csc2ccccc12)C(=O)O; Gly(cPent) = N[C@H](C(=O)O)C1CCCC1; Lys(Me2) = CN(C)CCCC[C@H](N)C(=O)O; Igl = N[C@H](C(=O)O)C1Cc2ccccc2C1; hCit = NC(=O)NCCCC[C@H](N)C(=O)O; Tic = O=C(O)[C@@H]1Cc2ccccc2CN1; Cit = NC(=O)NCCC[C@H](N)C(=O)O; Chg = N[C@H](C(=O)O)C1CCCCC1; NHPhenethyl = c1ccc(CCN*)cc1; X3 = c1cc2cc(CCN*)ccc2[nH]1; X4 = c1cc(CCN*)c2cc[nH]c2c1; X6 = c1ccc2[nH]c(CCN*)cc2c1; Pip = O=C(O)[C@@H]1CCCCN1; Morpholide = C1CN(*)CCO1; Nva = CCC[C@H](N)C(=O)O; βAla = NCCC(=O)O; Sar = CNCC(=O)O
molecular target: T1, MHC DR2 (DRB1*1501/DRA*0101) (Homo sapiens, UniProt P01903+P01911); test: HLA II Binding Assay (competition with biotinylated reference peptide); conditions: purified HLA-DR, biotinylated reference compound for DRB1*1501, 37° C. 24 h to 72 h; read-out: Inhibition of peptide binding IC50 (against MHC DR2 (DRB1*1501/DRA*0101))
T1 construct: endogenous in cells; host or cells: EBV homozygous (B lymphoblastoid) cell lines
Procedure: EBV homozygous cell lines are used as sources of human HLA class II molecules. […] The supernatant from lysed cells after centrifugation (100,000 g for 1 h) is applied to Sepharose 4B and protein A-Sepharose 4B columns and then to the specific antibody column. […] Fractions are immediately neutralized to pH 7 with 2 mM Tris-HCl (pH 6.8) and extensively dialyzed against 1 mM n-dodecyl β-D-maltoside, 150 mM NaCl, 10 mM phosphate (pH 7) buffer.
Samples (100 μl per well) are incubated in 96-wells polypropylene plates at 37° C. for 24 h to 72 h. After neutralization with 50 μl of 450 mM Tris HCl pH 7.5, 0.003% thimerosal, 0.3% BSA, 1 mM n-dodecyl β-D-maltoside buffer, samples are applied to 96-well maxisorp ELISA plates previously coated with 10 μg/ml L243 Mab and saturated with 100 mM Tris HCl pH=7.5, 0.3% BSA, and 0.003% thimerosal buffer. Samples are allowed to bind to the antibody-coated plates for 2 h at room temperature. Bound biotinylated compound is detected by incubating streptavidin-alkaline phosphatase conjugate, and after washings, by the addition of 4-methylumbelliferyl phosphate substrate. […] Maximal binding is determined by incubating the biotinylated peptide with the MHC class II molecule in the absence of competitor. Binding specificity is assessed by adding an excess of non-biotinylated peptide.

Molecule | IC50
CC(=O)N[C@H](C(=O)N[C@H](C(=O)N[C@@H](Cc1c[nH]c(N)n1)C(=O)N1Cc2ccccc2C[C@H]1C(=O)N[C@@H](Cc1ccccc1)C(N)=O)C1CCCCC1)C(C)C [AcV(Chg)(2-amino His)(Tic)F] (Ac-V[Chg][X8][Tic]F-NH2) | 10 to 100 nM
CC(=O)N[C@H](C(=O)N[C@H](C(=O)N[C@@H](CCCNC(N)=O)C(=O)N1Cc2ccccc2C[C@H]1C(=O)N[C@@H](Cc1ccccc1)C(N)=O)C1CCCCC1)C(C)C [AcV(Chg)(Cit)(Tic)F] (Ac-V[Chg][Cit][Tic]F-NH2) | 1 to 10 nM
CC(C)[C@H](NC(=O)CCN)C(=O)N[C@H](C(=O)N[C@@H](CCCNC(=N)N)C(=O)N1Cc2ccccc2C[C@H]1C(=O)N[C@@H](Cc1ccccc1)C(N)=O)C1CCCCC1 [(NH2-Beta Ala)V(Chg)R(Tic)F] (H-[βAla]V[Chg]R[Tic]F-NH2) | 1 to 10 nM
CC(C)[C@H](NC(=O)CN)C(=O)N[C@H](C(=O)N[C@@H](CCCNC(=N)N)C(=O)N1Cc2ccccc2C[C@H]1C(=O)N[C@@H](Cc1ccccc1)C(N)=O)C1CCCCC1 [(NH2-Gly)V(Chg)R(Tic)F] (H-GV[Chg]R[Tic]F-NH2) | 1 to 10 nM
CC(=O)N[C@H](C(=O)N[C@@H](CCCCN(C)C)C(=O)N1Cc2ccccc2C[C@H]1C(=O)N[C@@H](Cc1ccccc1)C(=O)N1CCCC[C@H]1C(N)=O)C1CCCC1 [Ac(Cpg)(diMeK)(Tic)F(homo Pro)] (Ac-[Gly(cPent)][Lys(Me2)][Tic]F[Pip]-NH2) | 10 to 100 nM
CC(C)[C@H](NC(=O)CN)C(=O)N[C@H](C(=O)N[C@@H](CCCNC(N)=O)C(=O)N1Cc2ccccc2C[C@H]1C(=O)N[C@@H](Cc1ccccc1)C(N)=O)C1CCCCC1 [(NH2-Gly)V(Chg)(Cit)(Tic)F] (H-GV[Chg][Cit][Tic]F-NH2) | 1 to 10 nM
(NH2-Beta Ala)V(Chg)(pyrimidinyl)(Tic)F | 10 to 100 nM
CC(C)[C@H](NC(=O)[C@@H](N)Cc1csc2ccccc12)C(=O)N[C@H](C(=O)N[C@@H](CCCNC(=N)N)C(=O)N1Cc2ccccc2C[C@H]1C(=O)N[C@@H](Cc1ccccc1)C(N)=O)C1CCCCC1 [(NH2-BTA)V(Chg)R(Tic)F] (H-[Bta]V[Chg]R[Tic]F-NH2) | 10 to 100 nM
CC(=O)N[C@H](C(=O)N[C@H](C(=O)N[C@@H](CCCNC(=N)N)C(=O)N1Cc2ccccc2C[C@H]1C(=O)N[C@@H](Cc1ccccc1)C(N)=O)C1CCCCC1)[C@@H](C)O [Ac(Thr)(Chg)R(Tic)F] (Ac-T[Chg]R[Tic]F-NH2) | 10 to 100 nM
CCC[C@H](NC(C)=O)C(=O)N[C@H](C(=O)N[C@@H](CCCNC(=N)N)C(=O)N1Cc2ccccc2C[C@H]1C(=O)N[C@@H](Cc1ccccc1)C(N)=O)C1CCCCC1 [Ac(nor-V)(Chg)R(Tic)F] (Ac-[Nva][Chg]R[Tic]F-NH2) | 1 to 10 nM
CC(C)[C@H](NC(=O)CCN)C(=O)N[C@H](C(=O)N[C@@H](Cc1ccccc1)C(=O)N[C@@H](Cc1ccccc1)C(=O)N[C@@H](Cc1ccccc1)C(N)=O)C1CCCCC1 [(NH2-Beta Ala)V(Chg)FFF] (H-[βAla]V[Chg]FFF-NH2) | 100 to 1000 nM
CC(=O)N[C@H](C(=O)N[C@@H](CCCNC(=N)N)C(=O)N1Cc2ccccc2C[C@H]1C(=O)N[C@@H](Cc1cn(C)c2ccccc12)C(N)=O)C1CCCCC1 [Ac(Chg)R(Tic)(1-Me-Trp)] (Ac-[Chg]R[Tic][Trp(1-Me)]-NH2) | 100 to 1000 nM
CC(=O)N[C@H](C(=O)N[C@@H](CCCNC(=N)N)C(=O)N1Cc2ccccc2C[C@H]1C(=O)N[C@@H](Cc1ccccc1)C(=O)N1CCCC[C@H]1C(=O)O)C1CCCC1 [Ac(Cpg)R(Tic)F(homo Pro)COOH] (Ac-[Gly(cPent)]R[Tic]F[Pip]-OH) | 10 to 100 nM
CNCC(=O)N[C@H](C(=O)N[C@H](C(=O)N[C@@H](CCCNC(=N)N)C(=O)N1Cc2ccccc2C[C@H]1C(=O)N[C@@H](Cc1ccccc1)C(N)=O)C1CCCCC1)C(C)C [(NH2-Sar)V(Chg)R(Tic)F] (H-[Sar]V[Chg]R[Tic]F-NH2) | 1 to 10 nM
CNCC(=O)N[C@H](C(=O)N[C@H](C(=O)N[C@@H](CCCNC(N)=O)C(=O)N1Cc2ccccc2C[C@H]1C(=O)N[C@@H](Cc1ccccc1)C(N)=O)C1CCCCC1)C(C)C [(NH2-Sar)V(Chg)(Cit)(Tic)F] (H-[Sar]V[Chg][Cit][Tic]F-NH2) | 1 to 10 nM

The next lines start with the values.

IC50 | Molecule
10 to 100 nM | CC(=O)N[C@H](C(=O)N[C@H](C(=O)N[C@@H](C)C(=O)N1Cc2ccccc2C[C@H]1C(=O)N[C@@H](Cc1ccccc1)C(N)=O)C1CCCCC1)C(C)C [AcV(Chg)A(Tic)F] (Ac-V[Chg]A[Tic]F-NH2)
100 to 1000 nM | CC(=O)N[C@H](C(=O)N[C@H](C(=O)N[C@@H](CCCNC(=N)N)C(=O)N1Cc2ccccc2C[C@H]1C(=O)NCCc1cc2ccccc2[nH]1)C1CCCCC1)C(C)C [AcV(Chg)R(Tic)(2-ethylaminoindole)] (Ac-V[Chg]R[Tic]-X6)
100 to 1000 nM | CC(=O)N[C@H](C(=O)N[C@H](C(=O)N[C@@H](CCCNC(=N)N)C(=O)N1Cc2ccccc2C[C@H]1C(=O)NCCc1cccc2[nH]ccc12)C1CCCCC1)C(C)C [AcV(Chg)R(Tic)(4-ethylaminoindole)] (Ac-V[Chg]R[Tic]-X4)
1 to 10 nM | CC(=O)N[C@H](C(=O)N[C@H](C(=O)N[C@@H](CCCNC(=N)N)C(=O)N1Cc2ccccc2C[C@H]1C(=O)N[C@@H](Cc1ccc(Cl)c(Cl)c1)C(N)=O)C1CCCCC1)C(C)C [AcV(Chg)R(Tic)(3,4-dichloro Phe)] (Ac-V[Chg]R[Tic][Phe(3,4-Cl2)]-NH2)
1 to 10 nM | CC(=O)N[C@H](C(=O)N[C@H](C(=O)N[C@@H](CCCNC(=N)N)C(=O)N1Cc2ccccc2C[C@H]1C(=O)N[C@@H](Cc1cccc2[nH]ncc12)C(N)=O)C1CCCCC1)C(C)C [AcV(Chg)R(Tic)(4-Indazole)] (Ac-V[Chg]R[Tic][X7]-NH2)
10 to 100 nM | CC(=O)N[C@H](C(=O)N[C@H](C(=O)N[C@@H](CCCNC(=N)N)C(=O)N1Cc2ccccc2C[C@H]1C(=O)N[C@@H](Cc1ccccc1)C(N)=O)C1Cc2ccccc2C1)C(C)C [AcV(Indgly)R(Tic)F] (Ac-V[Igl]R[Tic]F-NH2)
100 to 1000 nM | CC(=O)N[C@H](C(=O)N[C@H](C(=O)N[C@@H](CCCNC(=N)N)C(=O)N1Cc2ccccc2C[C@H]1C(=O)NCCc1ccccc1)C1CCCCC1)C(C)C [AcV(Chg)R(Tic)(phenethylamide)] (Ac-V[Chg]R[Tic]-NHPhenethyl)
10 to 100 nM | CC(=O)N[C@H](C(=O)N[C@H](C(=O)N[C@@H](CCCNC(=N)N)C(=O)N1Cc2ccccc2C[C@H]1C(=O)N[C@@H](Cc1ccccc1)C(=O)N1CCOCC1)C1CCCCC1)C(C)C [AcV(Chg)R(Tic)F-CO(morpholine)] (Ac-V[Chg]R[Tic]F-Morpholide)
100 to 1000 nM | CC(=O)N[C@H](C(=O)N[C@H](C(=O)N[C@@H](CCCNC(=N)N)C(=O)N1Cc2ccccc2C[C@H]1C(=O)NCCc1ccc2[nH]ccc2c1)C1CCCCC1)C(C)C [AcV(Chg)R(Tic)(5-ethylaminoindole)] (Ac-V[Chg]R[Tic]-X3)
1 to 10 nM | CC(=O)N[C@H](C(=O)N[C@H](C(=O)N[C@@H](CCCNC(=N)N)C(=O)N1Cc2ccccc2C[C@H]1C(=O)N[C@@H](Cc1ccccc1)C(N)=O)C1CCCC1)C(C)C [AcV(Cpg)R(Tic)F] (Ac-V[Gly(cPent)]R[Tic]F-NH2)
10 to 100 nM | CC(=O)N[C@H](C(=O)N[C@H](C(=O)N[C@@H](CCCNC(=N)N)C(=O)N1Cc2ccccc2C[C@H]1C(=O)N[C@@H](Cc1cccc2[nH]cnc12)C(N)=O)C1CCCCC1)C(C)C [AcV(Chg)R(Tic)(4-benzimidazole)] (Ac-V[Chg]R[Tic][X2]-NH2)
1 to 10 nM | CNC(=O)[C@H](Cc1ccccc1)NC(=O)[C@@H]1Cc2ccccc2CN1C(=O)[C@H](CCCNC(=N)N)NC(=O)[C@@H](NC(=O)[C@@H](NC(C)=O)C(C)C)C1Cc2ccccc2C1 [AcV(Indgly)R(Tic)F-CONHMe] (Ac-V[Igl]R[Tic]F-NHMe)
10 to 100 nM | CC(=O)N[C@H](C(=O)N[C@H](C(=O)N[C@@H](CCCNC(=N)N)C(=O)N1Cc2ccccc2C[C@H]1C(=O)N[C@@H](Cc1ccccc1)C(=O)N1CCOCC1)C1Cc2ccccc2C1)C(C)C [AcV(Indgly)R(Tic)F-CO(morpholine)] (Ac-V[Igl]R[Tic]F-Morpholide)
1 to 10 nM | CC(=O)N[C@H](C(=O)N[C@H](C(=O)N[C@@H](CCCNC(=N)N)C(=O)N1Cc2ccccc2C[C@H]1C(=O)N[C@@H](Cc1c[nH]c2ccccc12)C(N)=O)C1CCCCC1)C(C)C [AcV(Chg)R(Tic)(Trp)] (Ac-V[Chg]R[Tic]W-NH2)
1 to 10 nM | CC(=O)N[C@H](C(=O)N[C@H](C(=O)N[C@@H](CCCNC(=N)N)C(=O)N1Cc2ccccc2C[C@H]1C(=O)N[C@@H](Cc1ccc(F)cc1)C(N)=O)C1CCCCC1)C(C)C [AcV(Chg)R(Tic)(4′-F Phe)] (Ac-V[Chg]R[Tic][Phe(4-F)]-NH2)
1 to 10 nM | CC(=O)N[C@H](C(=O)N[C@H](C(=O)N[C@@H](CCCCNC(N)=O)C(=O)N1Cc2ccccc2C[C@H]1C(=O)N[C@@H](Cc1ccccc1)C(N)=O)C1CCCCC1)C(C)C [AcV(Chg)(homo Cit)(Tic)F] (Ac-V[Chg][hCit][Tic]F-NH2)
10 to 100 nM | CNC(=O)[C@H](Cc1ccccc1)NC(=O)[C@@H]1Cc2ccccc2CN1C(=O)[C@H](CCCNC(=N)N)NC(=O)[C@@H](NC(=O)[C@@H](NC(C)=O)C(C)C)C1CCCCC1 [AcV(Chg)R(Tic)F-CONHMe] (Ac-V[Chg]R[Tic]F-NHMe)

— patent US20110217324A1, “INHIBITORS OF ANTIGEN PRESENTATION BY MHC CLASS II MOLECULES AND METHODS OF USE THEREOF” (priority 2007, published 2011)
